This data set can be described thus: Human HepG2 cell viability assay in 384 well format. Format: toxicity, cell-based. Further details: dose 125 nL, time 70.5 hour; concentration not given beside the values. Conditions: HepG2 cells, read-out: Inhibition.
In the case of `O=C(c1ccco1)N1C[C@H]2CCCN(C(=O)c3ccsc3)[C@H]2C1`, the cytotoxicity at 70.5 h was -16.2%. The same measure for `CN(C)CCNC(=O)c1ccc(OC2CCN(C(=O)CO)CC2)c(Cl)c1`: -7.98%; for `CN1CCN(CCOc2ccc(NC(=O)c3ccc[nH]3)cc2)CC1`: -2.18%. The same measure for `CCN(C(c1cccnc1)c1ccc(F)cc1F)S(C)(=O)=O` (configuration not stated): -12.1%; for `CCc1nc2n(n1)CC(NCC(=O)Nc1ccc(Cl)cn1)CC2` (configuration not stated): -18.9%. As for `Cc1cc(-c2cnc(NCc3cccnc3)nc2C(C)C)on1`, the cytotoxicity at 70.5 h was -25.7%.

Take `c1ccc(NCc2cn3c(n2)CN(Cc2nccs2)CC3)nc1`: the cytotoxicity at 70.5 h was -0.336%.

As to `Cc1cc(C)c2[nH]c(C(=O)NCCN3CCCC3=O)c(C)c2c1`, the cytotoxicity at 70.5 h stood at 23.6%. As to `CC(C)c1ncncc1C(=O)NCCN1CCOCC1`, the cytotoxicity at 70.5 h was 1.2%.

`O=C1NCC2(CCCN(CCc3ccccc3)C2)Oc2ccccc21` (configuration not stated): the cytotoxicity at 70.5 h was 21.7%.

As to `CN1CC2(CCN(Cc3cccnc3)CC2)c2cccc(F)c21`, the cytotoxicity at 70.5 h is -2.73%. In the case of `O=C(CCC1CC1)N1C[C@@H](CN2CCCC2)[C@@H](CO)C1`, the cytotoxicity at 70.5 h was -13.2%. Consider `CCCc1nc(C)cc(N2CCNC(C(=O)NCc3cccnc3)C2)n1` (configuration not stated), for which the cytotoxicity at 70.5 h stood at 31%.

As to `CN(C)C(=O)CCS(=O)(=O)Cc1coc(-c2ccc(F)cc2)n1`, the cytotoxicity at 70.5 h is -16.4%.

`CCCC1CCCN(Cc2csc(-c3cnn(C)c3)n2)CC1` (configuration not stated): the cytotoxicity at 70.5 h was 14.1%. As for `CC1CN(c2ccc(CNC(=O)c3ccn(C)c(=O)c3)cn2)CCO1` (configuration not stated), the cytotoxicity at 70.5 h was -8.78%.

As for `COC(=O)c1cc(OCC2CCC2)cc(C(=O)N[C@H]2CCCC[C@@H]2O)c1`, the cytotoxicity at 70.5 h was -8.47%. Regarding `CS(=O)(=O)NC[C@H]1OC[C@@H]2CN(Cc3cccnc3)CC[C@@H]21`, the cytotoxicity at 70.5 h was -2.64%. Then `COc1ccc(C(CO)NC(=O)Nc2cccc(C#N)c2)cc1` (configuration not stated), with -8.65%; and `CC(C)(C)c1ncc2c(n1)CN(C(=O)c1ccc(-c3nc[nH]n3)cc1)C2`, with -1.51%. On to `CCN(CCC#N)Cn1ncc2cn(-c3ccccc3)nc2c1=O`, for which the cytotoxicity at 70.5 h is -2.4%. On to `CC(=O)c1cc(C(=O)NC2(c3ccccc3)CCC2)n(C)c1`, for which the cytotoxicity at 70.5 h is -6.28%. `COc1ccc(-c2cc(C(=O)NCCn3ccnc3)n(C)n2)cc1`: the cytotoxicity at 70.5 h stood at 19.2%. Consider `CN(C)C(=O)NCc1nnc2n1CCN(Cc1ccsc1)C2`, for which the cytotoxicity at 70.5 h was 3.34%. Then `CCc1ccc(C2NCCc3cc4c(cc32)OCCO4)cc1` (configuration not stated), with 8.93%. As for `N#Cc1ccc(CN2CCCCC2Cn2cncn2)c(F)c1` (configuration not stated), the cytotoxicity at 70.5 h came to 4.33%. On to `Cc1cc(C)n(CC(=O)NCc2ccccn2)n1`, for which the cytotoxicity at 70.5 h was -10.7%. Consider `CCn1nc(C)c(CN(CCOC)C(=O)c2ccccc2N(C)C)c1C`, for which the cytotoxicity at 70.5 h is -2.9%. On to `CC[C@@]1(O)CCN(C(=O)c2ccc(-c3cccc(F)c3)cc2)C[C@H]1O`, for which the cytotoxicity at 70.5 h is -7.02%. Consider `O=C(O)[C@]12CN(CC3CCC3)C[C@H]1CN(c1cnccn1)C2`, for which the cytotoxicity at 70.5 h is -4.33%.

With `CCOC(=O)c1n[nH]cc1CN1CCOC(Cc2ccc(F)cc2)C1` (configuration not stated), the cytotoxicity at 70.5 h was -3.8%. For `CCn1cncc1CN(Cc1ccc(OC)cc1OC)CC1CCCO1` (configuration not stated), the cytotoxicity at 70.5 h is -3.49%. For the compound `Cn1cc(C(=O)N[C@@H]2CN(Cc3ccoc3)[C@@H]3CCCO[C@@H]32)cn1`, the cytotoxicity at 70.5 h is -5.02%. On to `CNC(=O)c1ccc(OC)c(NCc2noc(-c3cccs3)n2)c1`, for which the cytotoxicity at 70.5 h is -16.8%.

Consider `CN(CC1(O)CCCN(c2ccccn2)C1)C(=O)CC1CCOCC1` (configuration not stated), for which the cytotoxicity at 70.5 h is -9.69%.

As for `COCc1nc(C(=O)N2CCN(c3nccc(OC)n3)CC2)cs1`, the cytotoxicity at 70.5 h came to 14.1%.

For the compound `CC(C)Cn1nnnc1SC(C(=O)NCc1cccnc1)C(C)C` (configuration not stated), the cytotoxicity at 70.5 h was -4.78%.

Turning to `Cn1cnc2c(-c3ccccc3)nc(C3CCNCC3)cc21`, the cytotoxicity at 70.5 h came to 13.6%.

`O=C(NCCc1ccc(F)cc1)C1CN(C(=O)Cn2cncn2)C1`: the cytotoxicity at 70.5 h was -13.2%. As for `O=C(COCc1ccccc1Cl)N1CCCC(n2cccn2)C1` (configuration not stated), the cytotoxicity at 70.5 h was found to be 3.17%.

With `c1cnn(CCNCc2csc(-c3ccc4c(c3)OCO4)n2)c1`, the cytotoxicity at 70.5 h was -1.83%. As to `CC(Cc1cccc(F)c1)C(=O)NS(=O)(=O)c1ccc(F)cc1` (configuration not stated), the cytotoxicity at 70.5 h worked out at 11.8%. `CN1CCN([C@@H]2CN(C(=O)c3ccnnc3)[C@@H]3CCCO[C@H]23)CC1`: the cytotoxicity at 70.5 h is -3.3%. Turning to `CN1CCN(c2cnn(CCn3cccn3)c(=O)c2)CC1`, the cytotoxicity at 70.5 h was -3.04%. As for `CCN1CCN(C2CCN(Cc3c(C)noc3C)CC2)C1=O`, the cytotoxicity at 70.5 h was 25.5%. Regarding `COCCN1CCN(CCS(=O)(=O)C(F)(F)F)CC1C` (configuration not stated), the cytotoxicity at 70.5 h is -6.2%. The same measure for `CCC(=O)N1CCC(Cc2ccccc2-c2ccncc2)(C(N)=O)C1` (configuration not stated): -10.9%; for `c1c(CN2CCOCC2)nc2n1CCN(CC1CC1)C2`: -3.69%; for `COc1ccc(CN2C[C@@H]3COC[C@@H](CC(=O)N4CCCC4)[C@@H]3C2)cc1`: -19.9%. For `CN(C)C(=O)[C@H]1C[C@H]2OCC[C@H]2N(Cc2ccc(F)cc2)C1`, the cytotoxicity at 70.5 h is -7.16%.

Take `Cc1ccc(F)cc1-n1c(CCCN2CCOCC2)n[nH]c1=O`: the cytotoxicity at 70.5 h was -7.44%.

For `O=C(CCNC(=O)C1CCCC1)NCc1cccnc1-n1cncn1`, the cytotoxicity at 70.5 h was -9.48%. In the case of `CCN(CC1CCOC1)C(=O)c1cc(OC)c2c(c1)OCCO2` (configuration not stated), the cytotoxicity at 70.5 h was 0.516%. The same measure for `C[C@H]1CN2C[C@H](O)CC2CN1Cc1ccncc1` (some centres not stated): -1.34%; for `COCCNc1ccc(CC2CCCNC2)cn1` (configuration not stated): -7.04%; for `O=S(=O)(c1cccc(Cl)c1)N1C[C@@H]2CCN[C@@H]2C1`: -0.439%. With `N#Cc1ccc(OCCOc2ccccc2C(=O)N2CCOCC2)cc1`, the cytotoxicity at 70.5 h is -9.24%. Regarding `N#CC(NC(=O)CNC(=O)c1ccccc1)c1ccsc1` (configuration not stated), the cytotoxicity at 70.5 h is -3.11%. Regarding `CCn1cncc1-c1nc2c([nH]1)CC(C)(C)CNC2=O`, the cytotoxicity at 70.5 h is -3.18%. Consider `COCC(=O)NC[C@@]1(COc2cnccn2)C[C@@H](O)[C@@H](O)C1`, for which the cytotoxicity at 70.5 h came to 13.8%.

Turning to `Cc1nc(CN(C)C2CCN(CC3CCCCC3)C2)no1` (configuration not stated), the cytotoxicity at 70.5 h was -11.6%.

For the compound `CN(C)c1ccc(C(=O)N2CCCC2c2cnn(C)c2)nn1` (configuration not stated), the cytotoxicity at 70.5 h was -11.7%. The same measure for `CS(=O)(=O)N1CCCC(C(=O)N2CCOc3ccccc32)C1` (configuration not stated): -14.4%. For `CN(Cc1cscn1)C1CCCN(Cc2noc(C3CC3)n2)C1` (configuration not stated), the cytotoxicity at 70.5 h was 22.4%. `CC(=O)N1CCCN(C(=O)NCc2cccnc2OC(C)C)CC1`: the cytotoxicity at 70.5 h was -5.61%. For the compound `Cc1ccc2nc(CNCCCN3CCCC3)cc(O)c2c1`, the cytotoxicity at 70.5 h is -9.2%. Then `Cc1cc(C)cc(OCCNC(=O)C(C)Sc2nncn2C)c1` (configuration not stated), with -10.3%.

`CC(=O)N[C@H]1CCN(C(=O)c2cc(Cn3cnc4ccccc43)[nH]n2)C1`: the cytotoxicity at 70.5 h was -3.6%. In the case of `COc1c(C)cnc(CN(C)C2CCOC3(CCOCC3)C2)c1C` (configuration not stated), the cytotoxicity at 70.5 h was -19.1%. For `CCCc1nc(CN(CC)C(=O)c2ccc3ncsc3c2)no1`, the cytotoxicity at 70.5 h was -0.393%. With `COC(=O)c1ccoc1CN(C)CC(=O)NC1CCS(=O)(=O)C1` (configuration not stated), the cytotoxicity at 70.5 h came out at 3.53%. Regarding `Cc1ccc(CN(c2cc(C)nc3nc(C(F)(F)F)nn23)C2CC2)cc1`, the cytotoxicity at 70.5 h was found to be 0.825%. For `Cc1cccc(CN2C(=O)CO[C@@H]3CN(CCO)C[C@H]32)c1`, the cytotoxicity at 70.5 h is -3.53%. For the compound `COc1ccccc1C(=O)Nc1cc(CC(C)C)nn1C`, the cytotoxicity at 70.5 h was -3.94%.

For the compound `CNC(=O)C1Cn2ccnc2C2(CCN(Cc3c(C)noc3C)CC2)O1` (configuration not stated), the cytotoxicity at 70.5 h was found to be 21.5%. Consider `O=C(CCc1ccsc1)N1CCC(Cc2ccc(CO)cc2)C1` (configuration not stated), for which the cytotoxicity at 70.5 h was -3.39%. As for `CC(C)Cc1nc(CCn2ccc(=O)[nH]c2=O)n(-c2ccccn2)n1`, the cytotoxicity at 70.5 h came to 11.3%. On to `COc1cccc(CC2CN(C3CC(C)(C)NC(C)(C)C3)CCO2)c1` (configuration not stated), for which the cytotoxicity at 70.5 h worked out at 50.4%. For the compound `CC1CS(=O)(=O)CCN1Cc1ccccc1OCC(F)(F)F` (configuration not stated), the cytotoxicity at 70.5 h is -6.75%. The same measure for `CCCc1nc(N(C)Cc2ccco2)c2c(n1)c(C)nn2CC`: -3.19%; for `Fc1ccc(OC2CCN(CCn3cncn3)CC2)cc1`: -9.54%.

Regarding `Cc1cc(CN(C)CC2(O)CCCN(CCC3CCCCC3)C2=O)no1` (configuration not stated), the cytotoxicity at 70.5 h was 48.7%. The same measure for `CN(C)CCOc1ccccc1N1CCN(C(=O)c2ccoc2)CC1`: 2.2%; for `CN(C)C(=O)CN1CCO[C@H]2CN(Cc3cccc(F)c3)C[C@H]21`: -8.07%. On to `O=C(C1CCCCO1)N1CCc2ncnc(NCCO)c2CC1` (configuration not stated), for which the cytotoxicity at 70.5 h was -2.71%. With `Fc1ccccc1-c1nccnc1C1CCCNC1` (configuration not stated), the cytotoxicity at 70.5 h was -8.72%. For `Cc1nc(C2CCCN2CC(=O)Nc2c(C)n[nH]c2C)no1` (configuration not stated), the cytotoxicity at 70.5 h was 39%.

Turning to `Cn1cc(CN2C[C@@H]3COC[C@]3(CNC(=O)c3ccccc3)C2)cn1`, the cytotoxicity at 70.5 h is -13.5%. For `CNC(=O)c1cc(NC(=O)Nc2cnn(CC(C)C)c2)ccc1F`, the cytotoxicity at 70.5 h is -4.7%. Consider `Cc1cc(C(=O)N2CCC(c3nccn3Cc3ccncc3)CC2)no1`, for which the cytotoxicity at 70.5 h stood at 1.65%. Consider `COc1ccc(SC(C)C(=O)N2CCC(NC(=O)C3CC3)CC2)cc1` (configuration not stated), for which the cytotoxicity at 70.5 h came to 8.09%.

For `CCOc1ncnc2c1CCN(Cc1cccs1)CC2`, the cytotoxicity at 70.5 h is -8.1%. Regarding `Cc1ccc(CNC2CCc3[nH]c(=O)ccc3C2)cc1C` (configuration not stated), the cytotoxicity at 70.5 h turned out to be 2.24%.

As for `CCc1nc(CCn2ccnc2-c2nccn2C)no1`, the cytotoxicity at 70.5 h is -7.8%. As to `O=C(Nc1cnccn1)[C@H]1CO[C@H]2CCN(c3ncc(F)cn3)C[C@H]2C1`, the cytotoxicity at 70.5 h came to 15%. `Cc1cnn(CCNCc2ccccc2F)c1`: the cytotoxicity at 70.5 h amounted to 0.747%. For `O=C(C1CCOCC1)N1C[C@H]2CCC[C@@]2(COCc2ccccn2)C1`, the cytotoxicity at 70.5 h is -10.2%.

The values are drawn from ChEMBL document CHEMBL3507680, “University of Dundee, Gates Library screen for HepG2 cell viability”.
